Among the data in PubChem BioAssay AID1963968 (Molecular Pharmacology Branch, DTP, NCI, 2024) are viability, T/C and IC50 values, retold here.

In the assay the test system is 945468-187-T-J3-PDC spheroids with HUVEC/MSC, viability. Briefly: Anticancer human tumor 945468-187-T-J3-PDC patient-derived rectal carcinoma cell line growth inhibition [PI3K]. As to conditions: for viability, T/C: stronger effect = lower value. The source says: Combinatorial screen of targeted agents with the PI3K inhibitors inavolisib, alpelisib, duvelisib, and copanlisib in multi-cell type tumor spheroids
A high-throughput screen of multi-cell type tumor spheroids was designed to identify active combinations of targeted small molecules and PI3K pathway inhibitors. Complex spheroids include a stromal component modeled by human endothelial cells (HUVEC) and fibroblasts modeled by human mesenchymal stem cells (MSCs). The concentration ranges selected for each drug and investigational agent were based upon clinically achievable concentrations if the clinical Cmax of the agent was known.
Compounds. The drugs and investigational agents: inavolisib (NSC800729), alpelisib (NSC765974), duvelisib (NSC772469), copanlisib (NSC816437), ipatasertib (NSC767898), afuresertib (NSC778305), talazoparib (NSC767125), sapanisertib (NSC764658), selumetinib (NSC741078), tovorafenib (DAY101, NSC766906), vemurafenib (NSC761431), ravoxertinib (NSC781343), sotorasib (NSC818433), MRTX1133 (NSC 836407), abemaciclib (NSC 768073), palbociclib (NSC758247), venetoclax (NSC 766270), SY5609 (NSC837396), enzalutamide (NSC755605), and darolutamide (NSC825331), were obtained from the National Cancer Institute (NCI) Developmental Therapeutics Program Chemical Repository. The FDA-approved anticancer drug set is available from the NCI Developmental Therapeutics Program. […] The stock solutions were prepared in dimethyl sulfoxide (DMSO, Sigma-Aldrich, St. Louis, MO, cat. D2650) at 800-fold the tested concentration and stored at -70 degrees C prior to their use. All drugs and investigational agents were tested over a range starting from a high concentration at or near the clinical Cmax and decreasing in half-log increments. If the clinical Cmax for an agent had not been determined, the highest concentration tested was 10 microM.
Cell Culture. All cells were maintained in an incubator at 37 degrees C and 5% CO2 with 95% humidity. The PDC lines were cultured according to standard operating procedures established by the NCI PDMR (https://pdmr.cancer.gov/sops/default.htm). All PDCs were thawed and cultured in Matrigel-coated flasks prepared with a working solution of 1X Ham's F-12 nutrient mix, without supplementation (Invitrogen, Waltham, MA, cat. 11765054), 100 U/mL penicillin-streptomycin (Invitrogen, cat. 15140122), and 2.5% Matrigel (Corning Inc., Corning, NY, cat. 354248) for the first three passages. The 354836-022-R-J1-PDC, 475296-252-R-J1-PDC, and 997726-040-R-J2-PDC lines were cultured in 6A media, which includes advanced DMEM/F-12 (Thermo Fisher Scientific, cat. 12634028), 10 mM HEPES (Thermo Fisher Scientific, cat. 15630080), 1X GlutaMAX supplement (Thermo Fisher Scientific, cat. 35050061), 0.1 mg/mL primocin (InvivoGen, San Diego, CA, cat. ant-pm-2), 10% defined fetal bovine serum, heat inactivated (HyClone Laboratories Inc., Logan, UT, cat. SH30070.03HI), 50% L-WRN conditioned media (ATCC, cat. CRL-3276), 1.25 mM N-Acetyl-L-cysteine (Sigma-Aldrich, cat. A9165), 10 mM nicotinamide (Sigma-Aldrich, cat. N0636), 1X B-27 supplement (Thermo Fisher Scientific, cat. 17504044), 1X N-2 supplement (Thermo Fisher Scientific, cat. 17502048), and 10 microM Y-27632 dihydrochloride (Tocris Bioscience, Bristol, United Kingdom, cat. 1254). The 624824-186-R-J2-PDC line was cultured in 6C/Colon 1B media, which includes all 6A media components plus 50 ng/mL human EGF recombinant protein (Thermo Fisher Scientific, cat. PHG0311). […]
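Note: spheroids exposed to agents for 7 days before viability read.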

As for `CC1(C)CCC(Nc2ncc(C(F)(F)F)c(-c3c[nH]c4c(P(C)(C)=O)c(C#N)ccc34)n2)CN1` (stereo not drawn), the viability, T/C (usually the ratio of treated to control) (compound 0.0316 µM) was 79.6% [middle of 4 runs] and the viability, T/C (compound 10 µM) was 12.7% [middle of 4 runs]. Besides, the IC50 (commonly the concentration that gives 50% inhibition) (curve of compound) is 5.16 µM [middle of 4 runs].
